Experimental data published in ChEMBL document CHEMBL1136563, “Pharmacophore-based discovery of substituted pyridines as novel dopamine transporter inhibitors” (Bioorg Med Chem Lett, 2003).

Key:
[1] = target: Sodium-dependent dopamine transporter (Rattus norvegicus, UniProt P23977); assay: Inhibition of reuptake of DA into striatal nerve endings (synaptosomes); assay type: subcellular, Brain
[2] = target: T1, Sodium-dependent dopamine transporter (Homo sapiens, UniProt Q01959); assay: Inhibition of [3H]DA uptake evaluated at the dopamine transporter
[3] = target: T1, Sodium-dependent dopamine transporter; assay: Affinity to displace binding of [3H]WIN-35428 to dopamine transporter
[4] = target: Sodium-dependent noradrenaline transporter (Homo sapiens, UniProt P23975); assay: Inhibition of [3H]-NE uptake evaluated at the monoamine transporter (NET)
[5] = target: Sodium-dependent serotonin transporter (Homo sapiens, UniProt P31645); assay: Inhibition of [3H]-5-HT uptake evaluated at the Serotonin transporter

With `Clc1ccccc1/C=C(/c1ccccc1)c1ccccn1` the Ki [1] was > 1000 nM.
Compound `c1ccc(Cc2ccnc(Cc3ccccc3)c2)cc1` has a Ki [1] of 2300 nM.
`c1ccc(-c2nnnn2-c2cnc3ccccc3c2)cc1` was tested, and the Ki [1] was > 1000 nM.
In the case of `CN=C=C(c1ccc(Cl)cc1)c1ccc(Cl)cc1`, the Ki [1] is reported as > 1000 nM.
Work on `c1ccc(C(c2ccccc2)c2cccnc2)cc1` yielded a Ki [2] of 860 nM, a Ki [3] of 780 nM and a Ki [4] of 7320 nM. For the same compound, the Ki [5] was 12600 nM.
In the case of `c1ccc2cc(-c3nnnn3-c3cnc4ccccc4c3)ccc2c1`, the Ki [1] is reported as > 1000 nM.
For `c1cncc(-c2c3ccccc3cc3ccccc23)c1`, the Ki [2] was > 10000 nM, the Ki [3] was > 10000 nM and the Ki [4] was > 10000 nM. The Ki [5] was > 10000 nM.
For `Clc1cnc(-c2ccccc2)n1Cc1ccccc1`, the Ki [1] was > 1000 nM.
With `c1ccc(C(c2ccccc2)c2ccncc2)cc1` the Ki [2] was 255 nM, the Ki [1] was 200 nM and the Ki [3] was 79 nM. For the same compound, the Ki [4] was 3460 nM and the Ki [5] was 1160 nM.
`c1ccc(CC(c2ccccc2)c2ccncc2)cc1` (configuration not stated) was tested, and the Ki [2] was 263 nM, the Ki [3] was 99 nM and the Ki [4] was 393 nM. The Ki [5] was 910 nM.
`CN=C=C(c1ccccc1)c1ccccc1` was tested, and the Ki [1] was > 1000 nM.
For `CN(C)CCC(C#N)(c1ccccc1)c1ccccc1`, the Ki [1] was > 1000 nM.
Work on `c1ccc(C(c2ccccc2)c2ccccn2)cc1` yielded a Ki [3] of 742 nM, a Ki [4] of 5530 nM and a Ki [5] of 35000 nM.
`c1ccc2c(-c3ccncc3)c3ccccc3cc2c1` was tested, and the Ki [2] was > 10000 nM, the Ki [3] was > 10000 nM and the Ki [4] was > 10000 nM. The Ki [5] was > 10000 nM.
For `c1ccc(Cc2ccncc2)cc1`, the Ki [2] was > 10000 nM, the Ki [3] was > 10000 nM and the Ki [4] was > 10000 nM. The Ki [5] was > 10000 nM.
With `N#Cc1c(Cl)nnc(-c2ccccc2)c1-c1ccccc1` the Ki [1] was > 1000 nM.
